Data as given in patent US5298622A, “Spiroindane opiate analogs” (priority 1993, dated 1994).
Non-standard residues stand in square brackets, D forms with d. Residues, ends and D or L forms follow the SMILES beside them. *: point of attachment. Tyr(Nα,Nα-allyl2) = C=CCN(CC=C)[C@@H](Cc1ccc(O)cc1)C(=O)*; Aib = CC(C)(N)C(=O)O

Tests used:
[1] = system: Guinea Pig Ileal Longitudinal Muscle (GPI), mu opioid receptor; experiment: cells; type: cell-based
Method: (§1) 1. Guinea Pig Ileal Longitudinal Muscle (GPI). Ilea from guinea pigs were taken approximately 10 cm from the ileocecal junction, and a strip of longitudinal muscle with the myenteric plexus attached was prepared by the method of H. B. Rang et al., Brit. J. Pharmacol., 22, 356 (1964). A 1 cm portion of this strip was then mounted between two platinum electrodes placed in a 10 ml organ bath and connected to an isometric transducer; contractions were recorded on a polygraph. Contractions of the ileal strip were initiated by supramaximal rectangular pulses in all preparations (80 V of 0.5 ms duration at a frequency of 0.1 Hz). Krebs bicarbonate solution containing 1.25 μM chlorpheniramine maleate was the bathing solution and was continuously bubbled with 95% O2 and 5% CO2. The organ bath was maintained at 36°-37° C. The longitudinal muscle strip was allowed to equilibrate with continuous stimulation for a minimum of 90 min. Cumulative concentration-response curves were determined after drugs were added to the bath in 10- to 50-μl amounts and washed out with two 10 ml portions of buffer after noting their maximum effects.
(§2) Concentration-response curves were obtained in the absence (control) and the presence of the antagonist are expressed as IC50 values. The IC50 ratio represents the IC50 in the presence of the antagonist divided by the control IC50 value in the same tissue. Therefore, a high IC50 ratio represents a correspondingly high degree of antagonism at a particular receptor. This IC50 ratio was employed to calculate the Ke value using the equation Ke=[antagonist]/(IC50 ratio-1). Therefore, a low Ke represents a correspondingly high degree of binding at a particular receptor.

[2] = system: mouse vas deferens (MVD), delta opioid receptor; experiment: Mouse vas deferens (MVD) assay, agonism; type: cell-based; settings: % Inhibition at 1000 nM (footnote 4); for inhibition at 1 µM: Mus musculus
Method: (§3) 2. Mouse Vas (MVD). This assay was performed according to the description by G. Henderson et al., Brit. J. Pharmacol., 46, 764 (1972). Both vasa deferentia were dissected out of mice and mounted singly through two platinum ring electrodes in a 10 ml organ bath. The bath contained Krebs bicarbonate solution that was continuously bubbled with 95% O2 and 5% CO2. The organ bath was maintained at 37° C. The tissue was attached to an isometric transducer and stimulated transmurally with rectangular pulses ([…], 1 ms duration, supramaximal voltage). Drugs were added cumulatively to the bath in 10- to 50-μl amounts and washed out after noting their maximum effect.
as §2

mu opioid receptor = biological target: T1, mu opioid receptor (Cavia porcellus, UniProt A0ACM8Q262); experiment: GPI assay, antagonism of morphine (mu); type: cell-based, guinea pig; settings: antagonist 100 nM, 15 min; for Kb: read-out: GPI Antagonism Ke (Morphine), Ke=[antagonist]/(IC50 ratio-1); for GPI Antagonism IC50 Ratio (Morphine): agonist morphine (mu)
T1 construct: antagonism of morphine
Method: as §1, §2

delta opioid receptor [3] = biological target: T2, delta opioid receptor (Mus musculus, UniProt P32300); experiment: MVD assay, antagonism of DADLE (delta); type: cell-based; settings: for Kb: read-out: MVD Antagonism Ke (DADLE); for δ-antagonist activity (in words): δ-selective agonist; for MVD Antagonism IC50 Ratio (DADLE): antagonist 100 nM, 15 min, agonist DADLE (delta)
T2 construct: Both vasa deferentia were dissected out of mice; from tissue; host or cells: mouse vas deferens
Method: as §3, §2

kappa opioid receptor = biological target: T3, kappa opioid receptor (Cavia porcellus, UniProt P41144); experiment: GPI assay, antagonism of ethylketazocine (EK, kappa); type: cell-based, guinea pig; settings: antagonist 100 nM, 15 min; agonist ethylketazocine (kappa)
T3 construct: a strip of longitudinal muscle with the myenteric plexus attached was prepared; from tissue; host or cells: guinea pig ileum, longitudinal muscle strip with myenteric plexus
Method: as §1
Concentration-response curves were obtained in the absence (control) and the presence of the antagonist are expressed as IC50 values. The IC50 ratio represents the IC50 in the presence of the antagonist divided by the control IC50 value in the same tissue. […]

ethanol drinking = settings: J. C. Froehlich et al. 1991; cited from earlier work
[4] = system: rats selectively bred for high voluntary ethanol drinking; settings: Ser. No. 07/750,109; cited from earlier work
delta opioid receptor [5] = settings: U.S. Pat. No. 4,816,586; cited from earlier work
rat model of alcoholism = settings: J. C. Froehlich et al. 1990; cited from earlier work
recovering alcoholics = settings: J. R. Volpicelli et al. 1990; cited from earlier work
[6] = GPI, % Inhibition at 1000 nM (footnote 4)

T1 sequence (A0ACM8Q262 1-400): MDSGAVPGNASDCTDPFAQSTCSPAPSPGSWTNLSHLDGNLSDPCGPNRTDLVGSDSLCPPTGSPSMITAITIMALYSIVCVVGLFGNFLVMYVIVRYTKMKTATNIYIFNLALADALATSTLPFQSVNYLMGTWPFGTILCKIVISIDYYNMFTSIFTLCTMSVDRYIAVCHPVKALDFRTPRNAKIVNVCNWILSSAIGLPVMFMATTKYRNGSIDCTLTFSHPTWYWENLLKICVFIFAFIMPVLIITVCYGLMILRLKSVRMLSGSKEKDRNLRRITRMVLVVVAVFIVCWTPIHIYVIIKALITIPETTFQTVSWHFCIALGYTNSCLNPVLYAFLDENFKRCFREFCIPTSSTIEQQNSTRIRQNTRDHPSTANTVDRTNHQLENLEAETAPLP
T2 sequence (P32300 whole entry): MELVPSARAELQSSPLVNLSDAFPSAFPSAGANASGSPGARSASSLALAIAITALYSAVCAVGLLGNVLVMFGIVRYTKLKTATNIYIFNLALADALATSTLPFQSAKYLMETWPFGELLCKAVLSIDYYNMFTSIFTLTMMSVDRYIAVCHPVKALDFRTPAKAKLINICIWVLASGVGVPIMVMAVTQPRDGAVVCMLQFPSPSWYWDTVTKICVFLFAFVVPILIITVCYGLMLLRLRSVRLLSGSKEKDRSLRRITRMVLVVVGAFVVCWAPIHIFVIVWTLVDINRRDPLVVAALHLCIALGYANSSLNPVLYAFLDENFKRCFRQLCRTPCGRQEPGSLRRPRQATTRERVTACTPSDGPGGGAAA
T3 sequence (P41144 whole entry): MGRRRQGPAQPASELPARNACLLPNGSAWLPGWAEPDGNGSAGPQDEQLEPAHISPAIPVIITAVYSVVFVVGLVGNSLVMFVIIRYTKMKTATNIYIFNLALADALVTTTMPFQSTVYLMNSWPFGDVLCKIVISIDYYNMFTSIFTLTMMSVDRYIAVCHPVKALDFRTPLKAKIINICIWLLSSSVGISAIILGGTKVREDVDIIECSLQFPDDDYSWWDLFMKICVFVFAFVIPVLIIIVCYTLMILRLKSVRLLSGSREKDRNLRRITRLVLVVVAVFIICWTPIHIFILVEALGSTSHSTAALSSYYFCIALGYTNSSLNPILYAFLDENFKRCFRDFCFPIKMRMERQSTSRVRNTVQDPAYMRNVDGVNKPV

Compound: 7-(4',5'-Benz-2'-spiroindano)naltrexone and 7-(6',7'-Benz-2'-spiroindano)naltrexone [Compound 3e]
- GPI Agonism % Inhibition [1, 6]: 20.3%
- MVD Agonism % Inhibition [2]: 15.6%

Compound: 7-(4,-Methoxy-2,-spiroindano)naltrexone and 7-(7' -Methoxy-2'-spiroindano)-naltrexone [Compound 3b]
- GPI Agonism % Inhibition [1, 6]: -15.0%
- Kb (mu opioid receptor): 13.4 nM
- MVD Agonism % Inhibition [2]: 23.1%

Compound: 7-(5'-Methoxy-2'-spiroindano)naltrexone and 7-(6'-Methoxy-2'-spiroindano)naltrexone [Compound 3c]
- GPI Agonism % Inhibition [1, 6]: -8.8%
- MVD Agonism % Inhibition [2]: 10.5%

Compound: O=C1[C@@H]2Oc3c(O)ccc4c3[C@@]23CCN(CC2CC2)[C@H](C4)[C@]3(O)CC12Cc1ccccc1C2 [Compound 3a]
- Kb (delta opioid receptor [3]): 0.78 nM
- δ-antagonist activity (in words) (delta opioid receptor [3]): potent δ-antagonist activity
- Kb (mu opioid receptor): 41 nM

Compound: O=C1[C@@H]2Oc3c(O)ccc4c3[C@@]23CCN(CC2CC2)[C@H](C4)[C@]3(O)CC12Cc1cc3ccccc3cc1C2 [Compound 3d, 7-(5',6'-Benz-2'-spiroindano)naltrexone]
- GPI Antagonism IC50 Ratio (EK) (kappa opioid receptor): 0.18
- agonist activity for μ-receptors (in words) [1]: potent agonist activity
- IC50 ([1]; Cavia porcellus, read-out: GPI Agonism IC50): 253 nM
- GPI Agonism Potency (relative to morphine) ([1]; GPI, morphine = 1): 0.47
- MVD Antagonism IC50 Ratio (DADLE) (delta opioid receptor [3]): 428
- Kb (delta opioid receptor [3]): 0.234 nM
- δ-antagonist activity (in words) (delta opioid receptor [3]): most potent antagonist
- GPI Antagonism IC50 Ratio (Morphine) (mu opioid receptor): 0.97
- inhibition at 1 µM [2]: 15.4%

Compound: O=C1[C@@H]2Oc3c(O)ccc4c3[C@@]23CCN(CC2CC2)[C@H](C4)[C@]3(O)CC12Cc1cccc3cccc(c13)C2 [Compound 3f, 7-(2',3'-Dihydro-2'-spiroperinaphtheno)naltrexone]
- GPI Antagonism IC50 Ratio (EK) (kappa opioid receptor): 0.39
- inhibition at 1 µM ([1]; Cavia porcellus, GPI, % Inhibition at 1000 nM (footnote 4), read-out: GPI Agonism % Inhibition): 16%
- MVD Antagonism IC50 Ratio (DADLE) (delta opioid receptor [3]): 8
- Kb (delta opioid receptor [3]): 14.9 nM
- GPI Antagonism IC50 Ratio (Morphine) (mu opioid receptor): 0.89
- inhibition at 1 µM [2]: 13%

Compound: C=CCN(CC=C)[C@@H](Cc1ccc(O)cc1)C(=O)NC(C)(C)C(=O)NC(C)(C)C(=O)N[C@@H](Cc1ccccc1)C(=O)N[C@@H](CC(C)C)C(=O)O [ICI 174864, N,N-diallyl-Tyr-Aib-Aib-Phe-Leu-OH] ({Tyr(Nα,Nα-allyl2)}-[Aib][Aib]FL-OH)
- duration of action (ethanol drinking): very short duration of action
- ethanol drinking (ethanol drinking): strongly inhibits ethanol drinking

Compound: Oc1ccc2c3c1O[C@H]1c4oc5ccccc5c4C[C@@]4(O)[C@@H](C2)N(CC2CC2)CC[C@]314 [NTB]
- ethanol drinking and water intake [4]: unexpectedly prolonged suppression of ethanol drinking without altering water intake

Compound: Oc1ccc2c3c1O[C@H]1c4[nH]c5ccccc5c4C[C@@]4(O)[C@@H](C2)N(CC2CC2)CC[C@]314 [NTI, naltrindole]
- selectivity and potency at delta receptors (delta opioid receptor [5]): highly selective
- ethanol drinking and water intake [4]: unexpectedly prolonged suppression of ethanol drinking without altering water intake

Compound: C=CCN1CC[C@]23c4c5ccc(O)c4O[C@H]2C(=O)CC[C@@]3(O)[C@H]1C5 [Naloxone]
- ethanol and water intake (rat model of alcoholism): suppress ethanol but not water intake

Compound: O=C1CC[C@@]2(O)[C@H]3Cc4ccc(O)c5c4[C@@]2(CCN3CC2CC2)[C@H]1O5 [naltrexone]
- incidence of relapse in recovering alcoholics (recovering alcoholics): reduce the incidence of relapse in recovering alcoholics
